For the experiment, the system named is mAB/LPS-induced experimental arthritis in male BALB/c mice. In words: mAb/LPS-induced mice arthritis model. Type of experiment: in vivo. The following applies: Enbrel 5 mg/kg/day IP. The protocol:
Treatment Regimen: Compound A was administered by oral gavage (PO), using a suitable stainless steel feeding needle. Enbrel (Reference Item) was administrated by intraperitoneal (IP) injections. Compound A was first administered on study Day 3 (one hour prior to the single LPS injection) and thereafter on Days 4, 5, 6, 7, 8, 9, 10, 11, 12 and 13 (total of 11 successive treatment days) at 1, 5 and 25 mg/kg once daily. Compound A treated groups comprised n=8 BALB/c male mice per dosing group. In addition, two equally sized groups were treated with either Enbrel (5 mg/kg/day, Reference Item), or a solution of 0.5% Na CMC/0.25% Tween 80 (PO, 5 ml/kg, Vehicle Control).
Arthritis Reactions: Both hind paws (left and right) of each animal were examined for signs of arthritogenic responses prior to arthritis induction (Day 0) and thereafter on study days 4, 5, 6, 7, 9, 11 & 14 as selected by the Sponsor. Arthritis reactions were scored and recorded according to a 0-4 scale in ascending order of severity (based on Morwell MD Biosciences Inc. brochure) as shown in Table 1.
Measurements of Experimental Arthritis: Hind paw thickness was determined on eight days using a Mitutoyo Electronic Digital Caliper (on Days 0, 4, 5, 6, 7, 9, 11 and 14) and presented as mean group values of the average for both left and right hind paws.

Setting [1] is: Day 0 (prior to arthritis induction).

Regarding Enbrel, the “Arthritis Scoring, mean of both hind paws (0-4 scale)” value (“Arthritis Scoring, mean” below) by setting is: under setting [1], 0; (Day 4) 0; (Day 5) 1; (Day 6) 1; (Day 7) 1**↓; (Day 9) 1***↓. In addition, the “Arthritis Scoring, mean” value (Day 11) was 0***↓ and the “Arthritis Scoring, mean” value (Day 14) is on record as 0**↓. The “Hind Paws Thickness, group mean” value runs as follows: under setting [1], 2.2 mm; (Day 4) 2.2 mm; (Day 5) 2.3 mm; (Day 6) 2.5*↓ mm; (Day 7) 2.5**↓ mm; (Day 9) 2.3**↓ mm. Further, the “Hind Paws Thickness, group mean” value is 2.3**↓ mm (Day 11) and 2.3**↓ mm (Day 14). Besides, the “Percentage Change in Hind Paw Thickness vs. Study Commencement (Day 0), group mean” value (shortened to “Percentage Change”) (Day 4) was 0%; the “Percentage Change” value (Day 5) was 6%; the “Percentage Change” value (Day 6) was found to be 13%; the “Percentage Change” value (Day 7) is listed as 12**↓ %; the “Percentage Change” value (Day 9) is 7**↓ %; the “Percentage Change” value (Day 11) is 4**↓ %. In addition, where the note is “Day 14”, the “Percentage Change” value was 4**↓ %.
